The text below walks through data of US20080293646A1, “MACROLIDES” (Pfizer Inc, priority 2007, published 2008).

The subject of one data set is S. pneumoniae ermB. Description: MIC, microtiter broth dilution, S. pneumoniae ermB isolates. In kind it is cell-based, Streptococcus pneumoniae. The settings on record: for MIC50 / MIC90: Streptococcus pneumoniae. On the technique in general: Broth dilution looks for growth in wells or tubes with falling amounts of substance.
The test system of the next data set is S. pneumoniae mefA. Description: MIC, microtiter broth dilution, S. pneumoniae mefA isolates. In kind it is cell-based, Streptococcus pneumoniae. The settings on record: for MIC50 / MIC90: Streptococcus pneumoniae.
The test system of another data set is S. pneumoniae emB/mefA. Description: MIC, microtiter broth dilution, S. pneumoniae ermB/mefA isolates. In kind it is cell-based, Streptococcus pneumoniae. The settings on record: for MIC50 / MIC90: Streptococcus pneumoniae.
The test system of another data set is S. pyogenes mefA. Briefly: MIC, microtiter broth dilution, S. pyogenes mefA isolates. The settings on record: for MIC50 / MIC90: Streptococcus pyogenes. Format: cell-based, Streptococcus pyogenes.
Data set [1] relates to H. influenzae Telithromycin (susceptible). Briefly: MIC, microtiter broth dilution, telithromycin-susceptible H. influenzae. Format: cell-based, Haemophilus influenzae. The settings on record: for MIC50 / MIC90: Haemophilus influenzae.
Data set [2] relates to H. influenzae Telithromycin (intermediate). Briefly: MIC, microtiter broth dilution, telithromycin-intermediate H. influenzae. The settings on record: for MIC50 / MIC90: Haemophilus influenzae. In kind it is cell-based, Haemophilus influenzae.
Another data set deals with M. catarrhalis. Description: MIC, microtiter broth dilution, M. catarrhalis. In kind it is cell-based, Moraxella catarrhalis. The settings on record: for MIC50 / MIC90: Moraxella catarrhalis.
In another data set the test system is L. pneumophila. Briefly: microbe, parasite or virus in culture. The settings on record: for MIC Range: L. pneumophila, n=10 isolates; for MIC50 / MIC90: Legionella pneumophila. In kind it is cell-based, Legionella pneumophila.
Data set [3] is described as follows: HLM ER (human liver microsomes extraction ratio). In kind it is in vitro ADME. The settings on record: 1 μM compound, NADPH, 37° C., <0.32 is lower limit of assay. The protocol: HLM ER: (human liver microsomes extraction ratio). This assay measures clearance of compound over time in the human liver microsome system due to NADPH-dependent oxidative metabolism. […] Assay Procedure: […] The reaction mixture was pre-incubated at 37° C. for 5 minutes before adding betanicotinamide adenine dinucleotide phosphate—reduced tetrasodium salt (NADPH) (1.0 mM). Aliquots of the incubation mixture were removed at 0, 5, 10, 20, 30 and 45 minutes. The aliquots were quenched in acetonitrile containing internal standard. Samples were centrifuged and the resulting supernatant analyzed by liquid chromatography/mass spectrometry (LC/MS/MS), with a Sciex API4000 using multiple reaction monitoring optimized for each test compound. […] The first order disappearance rate constant was determined for each incubation by plotting natural log(LN) substrate concentration (peak area ratio, drug/internal standard) against incubation time and determining the slope of the regression line (k), using data where an accurate first order decay curve could be obtained. Predicted hepatic clearances (CLH) and extraction ratios were calculated according to the following equations: […] where the following constants were: Liver Weight=21 g/kg [human] Microsomal Protein in Incubation=1.52 mg/mL Liver Protein=45 mg/g [human] Liver Blood Flow (QH)=20 mL/min/kg [human]

For another data set, the target named is CYP3A (Homo sapiens, UniProt P08684). Description: CYP3A time-dependent inhibition in human liver microsomes (midazolam probe). The settings on record: pooled human liver microsomes, pH 7.4, probe midazolam (30 μM, 1'-hydroxymidazolam formation). In general terms: Liver microsomes are a subcellular fraction often used to study metabolism.
[4] abbreviates: S. pneumoniae ermB, n=34 isolates.
[5] abbreviates: S. pneumoniae mefA, n=39 isolates.
[6] abbreviates: S. pneumoniae emB/mefA, n=45 isolates.
[7] abbreviates: S. pyogenes mefA, n=23 isolates.
Where [8] appears, read: H. influenzae telithromycin (susceptible), n=82 isolates.
The mark [9] stands for this setting: H. influenzae telithromycin (intermediate), n=12 isolates.
Where [10] appears, read: S. pneumoniae ermB, n=34 isolates, read-out: MIC50.
The mark [11] stands for this setting: S. pneumoniae ermB, n=34 isolates, read-out: MIC90.
The mark [12] stands for this setting: S. pneumoniae mefA, n=39 isolates, read-out: MIC90.
Setting [13] is: S. pneumoniae emB/mefA, n=45 isolates, read-out: MIC50.
Setting [14] is: S. pneumoniae emB/mefA, n=45 isolates, read-out: MIC90.
Setting [15] is: S. pyogenes mefA, n=23 isolates, read-out: MIC50.
The mark [16] stands for this setting: S. pyogenes mefA, n=23 isolates, read-out: MIC90.
Setting [17] is: H. influenzae telithromycin (susceptible), n=82 isolates, read-out: MIC50.
Where [18] appears, read: H. influenzae telithromycin (susceptible), n=82 isolates, read-out: MIC90.
[19] abbreviates: H. influenzae telithromycin (intermediate), n=12 isolates, read-out: MIC50.
Setting [20] is: H. influenzae telithromycin (intermediate), n=12 isolates, read-out: MIC90.
Setting [21] is: M. catarrhalis, n=30 isolates, read-out: MIC90.

Values after ≈ are worked out from the molar mass of the structure shown. Where a name gives a salt, the structure may show the parent alone. Read-outs that look alike come from different tables or passages of the source. Some results are limits rather than exact numbers.

Chain of CYP3A (P08684 2-503): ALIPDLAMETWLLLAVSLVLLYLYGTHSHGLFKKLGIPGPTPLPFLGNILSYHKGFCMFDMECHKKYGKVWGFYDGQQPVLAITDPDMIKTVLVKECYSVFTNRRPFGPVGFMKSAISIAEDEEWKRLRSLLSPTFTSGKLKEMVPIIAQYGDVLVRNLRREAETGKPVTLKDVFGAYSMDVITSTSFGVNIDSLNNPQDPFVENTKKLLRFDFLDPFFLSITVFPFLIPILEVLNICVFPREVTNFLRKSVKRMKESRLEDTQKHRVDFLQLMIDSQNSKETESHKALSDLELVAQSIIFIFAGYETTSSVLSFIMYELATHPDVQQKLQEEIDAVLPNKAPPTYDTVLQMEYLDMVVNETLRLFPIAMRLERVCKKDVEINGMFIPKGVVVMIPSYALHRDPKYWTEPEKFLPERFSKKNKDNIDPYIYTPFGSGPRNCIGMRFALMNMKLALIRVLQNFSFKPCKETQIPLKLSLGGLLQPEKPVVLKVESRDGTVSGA

For orientation: kinact means the rate constant of inactivation at saturating inhibitor. Regarding `CC[C@H]1OC(=O)[C@H](C)C(=O)[C@H](C)[C@@H](O[C@@H]2O[C@H](C)C[C@H](N(C)C)[C@H]2O)[C@](C)(OC)C[C@@H](C)C(=O)[C@H](C)[C@H]2N(C3CN(Cc4c(O)cnc5cccnc45)C3)C(=O)O[C@]12C` [Example 1, 3-Descladinosyl-11,12-dideoxy-6-O-methyl-3-oxo-12,11-(oxycarbonyl-(1-((3-hydroxy-[1,5]-naphthyridin-4-yl)methyl)-azetidin-3-yl)-imino)-erythromycin A Fumarate], the “MIC Range” value against S. pneumoniae ermB (setting [4]) is “≦0.0625-2 μg/mL”; in the data set with S. pneumoniae mefA (setting [5]), “≦0.06-1 μg/mL”; against S. pneumoniae emB/mefA (setting [6]), “≦0.0625-1 μg/mL”; in the data set on S. pyogenes mefA (setting [7]) it was 0.5 to 1 µg/mL; in data set [1] (setting [8]), 1 to 8 µg/mL; in data set [2] (setting [9]), 4 to 8 µg/mL. The “MIC Range” value lay in the range of 0.008 to 0.25 µg/mL with M. catarrhalis (M. catarrhalis, n=30 isolates) and 0.008 to 0.03 µg/mL with L. pneumophila. For the same compound, the MIC50 in the data set on S. pneumoniae ermB was not above 0.0625 µg/mL; in the data set on S. pneumoniae mefA, 0.125 µg/mL; in the data set on S. pneumoniae emB/mefA it was 0.5 µg/mL; in the data set with S. pyogenes mefA, 0.5 µg/mL; in data set [1], 2 µg/mL; in [2], 4 µg/mL. Also, the values for the MIC50 in the data set on M. catarrhalis and against L. pneumophila were 0.03 µg/mL and 0.016 µg/mL, respectively. The MIC90 in the data set on S. pneumoniae ermB came out at 1 µg/mL; against S. pneumoniae mefA it was 0.5 µg/mL; in the data set with S. pneumoniae emB/mefA, 1 µg/mL; against S. pyogenes mefA, 1 µg/mL; in data set [1], 4 µg/mL; in data set [2], 8 µg/mL. Further, the MIC90 is 0.06 µg/mL in the data set with M. catarrhalis and 0.03 µg/mL with L. pneumophila. In data set [3], the “HLM ER” value is recorded as less than 0.32. Besides, the Ki at CYP3A was found to be 24 µM. At CYP3A, the kinact was 0.0004 s⁻¹.

Consider `CC[C@H]1OC(=O)[C@H](C)[C@@H](O[C@H]2C[C@@](C)(OC)[C@@H](O)[C@H](C)O2)[C@H](C)[C@@H](O[C@@H]2O[C@H](C)C[C@H](N(C)C)[C@H]2O)[C@](C)(O)C[C@@H](C)C(=O)[C@H](C)[C@@H](O)[C@]1(C)O` [erythromycin], for which the MIC50 with S. pneumoniae ermB (setting [10]) was more than 64 µg/mL; in the data set on S. pneumoniae mefA (S. pneumoniae mefA, n=39 isolates, read-out: MIC50) it was 8 µg/mL (≈ 10.9 µM); with S. pneumoniae emB/mefA (setting [13]) it was more than 64 µg/mL; in the data set with S. pyogenes mefA (setting [15]) it was 8 µg/mL (≈ 10.9 µM); in data set [1] (setting [17]), 8 µg/mL (≈ 10.9 µM); in data set [2] (setting [19]) it was 16 µg/mL (≈ 21.8 µM). Further, the MIC50 in the data set on M. catarrhalis (M. catarrhalis, n=30 isolates, read-out: MIC50) came out at 0.25 µg/mL (≈ 0.341 µM). In addition, the MIC90 in the data set with S. pneumoniae ermB (setting [11]) is more than 64 µg/mL; in the data set on S. pneumoniae mefA (setting [12]) it was 16 µg/mL (≈ 21.8 µM); with S. pneumoniae emB/mefA (setting [14]) it was more than 64 µg/mL; with S. pyogenes mefA (setting [16]), 16 µg/mL (≈ 21.8 µM); in [1] (setting [18]) it was 16 µg/mL (≈ 21.8 µM); in [2] (setting [20]) it was 16 µg/mL (≈ 21.8 µM). The MIC90 in the data set with M. catarrhalis (setting [21]) turned out to be 0.25 µg/mL (≈ 0.341 µM). The “MIC Range” value against S. pneumoniae mefA (setting [5]) was 2 to 16 µg/mL; in the data set with S. pyogenes mefA (setting [7]) it was 8 to 32 µg/mL; in data set [1] (setting [8]), 1 to 16 µg/mL; in data set [2] (setting [9]), 8 to 16 µg/mL; against M. catarrhalis (M. catarrhalis, n=30 isolates) it was 0.03 to 1 µg/mL.

For the compound `CC[C@H]1OC(=O)[C@H](C)C(=O)[C@H](C)[C@@H](O[C@@H]2O[C@H](C)C[C@H](N(C)C)[C@H]2O)[C@](C)(OC)C[C@@H](C)C(=O)[C@H](C)[C@H]2N(CCCCn3cnc(-c4cccnc4)c3)C(=O)O[C@]12C` [telithromycin], the “MIC Range” value in the data set with S. pneumoniae ermB (setting [4]) is “≦0.0625-1 μg/mL”; with S. pneumoniae mefA (setting [5]) it was “≦0.06-0.5 μg/mL”; against S. pneumoniae emB/mefA (setting [6]), “≦0.0625-1 μg/mL”; in the data set with S. pyogenes mefA (setting [7]), 0.25 to 2 µg/mL; in [1] (setting [8]), 0.25 to 4 µg/mL; in data set [2] (setting [9]), 8 µg/mL (≈ 9.85 µM). Besides, the “MIC Range” value against M. catarrhalis (M. catarrhalis, n=30 isolates) fell in the range of 0.006 to 0.5 µg/mL; against L. pneumophila it was 0.016 to 0.03 µg/mL. The MIC50 in the data set with S. pneumoniae ermB (setting [10]) is not above 0.0625 µg/mL; in the data set with S. pneumoniae mefA it was 0.125 µg/mL (≈ 0.154 µM); with S. pneumoniae emB/mefA (setting [13]), 0.5 µg/mL (≈ 0.616 µM); with S. pyogenes mefA (setting [15]) it was 0.5 µg/mL (≈ 0.616 µM); in [1] (setting [17]) it was 1 µg/mL (≈ 1.23 µM); in data set [2] (setting [19]), 8 µg/mL (≈ 9.85 µM). In addition, the values for the MIC50 against M. catarrhalis and against L. pneumophila were 0.125 µg/mL (≈ 0.154 µM) and 0.016 µg/mL (≈ 0.0197 µM), respectively. In addition, the MIC90 in the data set with S. pneumoniae ermB (setting [11]) came out at 0.5 µg/mL (≈ 0.616 µM); with S. pneumoniae mefA (setting [12]) it was 0.5 µg/mL (≈ 0.616 µM); in the data set on S. pneumoniae emB/mefA (setting [14]) it was 0.5 µg/mL (≈ 0.616 µM); in the data set on S. pyogenes mefA (setting [16]) it was 0.5 µg/mL (≈ 0.616 µM); in [1] (setting [18]), 4 µg/mL (≈ 4.93 µM); in data set [2] (setting [20]), 8 µg/mL (≈ 9.85 µM). The MIC90 is 0.25 µg/mL (≈ 0.308 µM) in the data set with M. catarrhalis (setting [21]) and 0.016 µg/mL (≈ 0.0197 µM) in the data set on L. pneumophila.

On to `CC1(C)S[C@@H]2[C@H](NC(=O)[C@H](N)c3ccc(O)cc3)C(=O)N2[C@H]1C(=O)O` [amoxicillin], for which the “MIC Range” value against S. pyogenes mefA (setting [7]) was in the range of 0.004 to 0.03 µg/mL. The MIC50 in the data set on S. pyogenes mefA (setting [15]) turned out to be 0.008 µg/mL (≈ 0.0219 µM). In the data set with S. pyogenes mefA (setting [16]), the MIC90 turned out to be 0.016 µg/mL (≈ 0.0438 µM).

For `CC[C@H]1OC(=O)[C@H](C)[C@@H](O[C@H]2C[C@@](C)(OC)[C@@H](O)[C@H](C)O2)[C@H](C)[C@@H](O[C@@H]2O[C@H](C)C[C@H](N(C)C)[C@H]2O)[C@](C)(O)C[C@@H](C)CN(C)[C@H](C)[C@@H](O)[C@]1(C)O` [azithromycin], in the data set with L. pneumophila, the “MIC Range” value fell in the range of 0.03 to 0.06 µg/mL, the MIC50 amounted to 0.06 µg/mL (≈ 0.0801 µM) and the MIC90 came to 0.06 µg/mL (≈ 0.0801 µM).
